Measurements published in patent publication US4956466A, “Thiazole derivatives and process for the preparation thereof” (Laboratorios Vinas, S. A., priority 1988, dated 1990).

System: ethanol-induced ulcers
Test: Necrotising agent model: ethanol-induced ulcers
Assay type: in vivo, rat
Method: (B) Necrotising agent model:
Using the necrotising agent model, ethanol in this case, described by Robert el al. (Gastroenterology, 77: 433, 1979), the activity of LV-200 was compared with that of Nt at equimolar dose levels and a control group which was administered vehicle.
The table below gives the lesion indices (in ulcerated area in mm) of the three groups studied, as well as the percentage inhibition of the ulcers of the treated groups over the control group (mean values±standard error of the mean).

`CNC(=C[N+](=O)[O-])NCCSCc1csc(CN(C)C)n1` [Nt, N-methyl-N'-2-((2(dimethylaminomethyl)-4-thiazolyl)methylthio)ethyl-2-nitro-1,1-ethylenediamine] was tested, and the “inhibition of ulcers induced by absolute ethanol (in words)” value (absolute ethanol) was “does not inhibit ulcers”, the “% inhibition of the ulcers over the control group” value (ethanol, equimolar doses of LV-200 (230 mg/kg) and Nt) was 0% and the “lesion index (ulcerated area), mm lesions” value (ethanol, equimolar doses of LV-200 (230 mg/kg) and Nt, mean ± standard error of the mean, control 91.2 ± 17.7, LV-200 p < 0.01 vs control, p < 0.001 versus Nt (t test)) was 97.7 ± 11.8 mm.
